This note sets out measurements from US20170081679A1, “METHODS OF IMPROVING NUCLEASE MEDIATED HOMOLOGOUS RECOMBINATION” (priority 2015, published 2017).

For series [1], the system named is rabbit embryos (ROSA26 like locus, RLL). Kind of series: Cas9 mediated RLL-EGFP knock-in in rabbit embryos in vitro. The format is cell-based. As to the method: (§1) In one embodiment, we designed sgRNA targeting a ROSA26 like locus (RLL) in the rabbit genome (FIG. 2E). We next determined the effects of SCR7, an NHEJ inhibitor, and RS-1, an HDR enhancer on the knock-in success rates. Donor template DNAs were co-microinjected with Cas9 mRNA and sgRNA for RLL locus. After injection, the embryos were treated for 20 h in a serial concentration of SCR7: 0 μM (control), 20 μM, 40 μM, and 80 μM, or in RS-1 at 0 μM (control), 7.5 μM, and 15 μM.
(§2) In one embodiment, we microinjected 79 embryos with RAD51 mRNA, in addition to sgRNA, Cas9 mRNA and donor DNAs (FIG. 3A). RAD51 recombinase is a key player for homologous recombination and the repair of DNA DSBs (reference 13). Since it has been reported that RS-1 stimulates RAD51 (reference 12), we reasoned that including RAD51 mRNA in the microinjection mix would yield similar improvements on the knock-in efficiency as achieved with RS-1.

For series [2], the system named is rabbit embryos. Kind of series: Embryo development (blastocyst rate) after microinjection and treatment. It is filed as cell-based. Particulars: 20 h; for blastocyst development: control 61.2%. As to the method: as §1, §2
Series [3] deals with rabbit embryos (CFTR locus). Kind of series: Cas9 mediated knock-in of CFTRdelF508 to rabbit CFTR locus in embryos in vitro. It is filed as cell-based. Particulars: CFTRdelF508, Cas9, RS-1 7.5 μM; control 13%. From the text: In another embodiment, we tested the effects of RS-1 supplementation on Cas9 mediated knock-in of CFTRdelF508, the most frequent mutation type identified in human cystic fibrosis (CF) patients, to the rabbit CFTR locus (FIG. 4).

In series [4] the test system is rabbit embryos (rbApoAI locus). Kind of series: TALEN mediated knock-in of hApoAII to rbApoAI locus in embryos in vitro. It is filed as cell-based. To be noted: RS-1 7.5 μM, control 7%. An excerpt:
In another embodiment, we tested the effects of RS-1 in a TALEN mediated knock-in system. We designed and validated TALEN pairs targeting rbApoAI locus for knocking in the hApoAII coding sequence (FIG. 2B).

Series [5] concerns rabbit RLL. The series is described as follows: Cas9 mediated RLL-EGFP knock-in animal production (embryo transfer). Particulars: RS-1 7.5 μM. The format is in vivo. The method, then:
In one embodiment, we used RS-1 at 7.5 μM for the in vivo experiments. The sgRNA and donor DNA were used for knocking in EGFP to the rabbit RLL.
In the control group, we transferred a total of 373 embryos to synchronized recipient rabbits and obtained 43 kits. Twenty-nine of these 43 kits (67%) carried indel alleles but with on knock-in alleles. Three are proven as knock-in founders after PCR and sequencing (FIG. 2A). Of note, these three knock-in founders also carry indel alleles. The overall knock-in efficiency is 0.8% calculated by total knock-in founders/total embryos transferred, or 7.0% calculated by total knock-in founders/total kits born.
In the RS-1 treatment group (FIG. 2A), we transferred 146 embryos and obtained 38 kits, 18 of which carried indel but no knock-in alleles (47%). Similar to the in vitro results, the knock-in success rate was multifold higher than that in the control group. A total of 10 knock-in founders were produced, with the knock-in efficiency of 6.8% calculated by total knock-in founders/total embryos transferred, or 26.3% calculated by total knock-in founders/total kits born.

The test system of series [6] is rbApoAI locus. The series is described as follows: TALEN mediated hApoAII knock-in animal production (embryo transfer). It is filed as in vivo, rabbit. To be noted: RS-1 treatment. An excerpt:
In another embodiment, we tested RS-1 on the TALEN system in vivo. The same TALEN pairs and donor DNAs used in the in vitro work were used to product hApoAII knock-in animals.
Without RS-1 treatment, only one founder animal was produced out of 227 embryos transferred (FIG. 2A). The knock-in efficiency was 0.4% calculated by total knock-in founders/total embryos transferred or 6.3% calculated by total knock-in founders/total kits born.
After RS-1 treatment, we transferred a total of 145 embryos and obtained 17 kits. Seven out of 17 kits carried indel but no knock-in alleles (41%).

The test system of series [7] is RLL-EGFP knock-in founder rabbits. Kind of series: Germline transmission and allele distribution in embryos parented by RLL-EGFP founders. It is filed as in vivo, rabbit. An excerpt:
(§3) At the time of submitting this manuscript, five RLL-EGFP founders, three from the RS-1 treatment group, two from the non-treatment group, have reached sexual maturity. We bred these RLL-EGFP founder animals with WT counterparts.
To ultimately determine the frequencies of different types of alleles (i.e. WT, indel and knock-in) in the germ cells of knock-in animals, we used WT animals to breed with five RLL knock-in founders, 2 derived without RS-1 treatment and the other 3 with RS-1 treatment. Embryos were produced from founders of the RS-1 treated group (n=72) and the non-treated group (n=66), sequenced, and categorized as WT, indel, or knock-in based on the allele sequence (FIG. 2I). Similar percentage of WT alleles (17 vs. 18%) are found between these two groups. […] It appears that knock-in events take place at the expense of KO because the overall mutation rates (indel+knock-in) were similar between these two groups.

Series [8] relates to founder rabbits. Kind of series: Health and reproduction of founder animals. The format is in vivo.
Description: as §3
In sum, RS-1 is effective on improving knock-in rates in both the TALEN and the Cas9 mediated genome editing systems.

Molecules are shown by their SMILES. Entries after “also recorded” stand apart in the source; their conditions may differ.

With `O=C(Nc1ccc(Br)cc1)c1ccc(Br)c(S(=O)(=O)NCc2ccccc2)c1` [RS-1], the knock-in rate in series [1] (RS-1 7.5 μM, 20 h, control 4.8%) stood at 26.1%. In series [1] (RS-1 15 μM, 20 h, control 4.8%), the knock-in efficiency turned out to be 5.4%. Also, in series [1] (RS-1 at optimal concentration 7.5 μM, different loci (RLL, ApoAI, CFTR), in vitro), the “increase of knock-in efficiency” value is listed as 2- to 5 fold. For the same compound, the figures for the blastocyst development in series [2] (RS-1 7.5 μM) and in series [2] (RS-1 15 μM) were 57.6% and 82.2%, respectively. The “percentage of embryos carrying knock-in alleles” value is recorded as 30% in series [3] and 15% in series [4]. The “kits carrying indel but no knock-in alleles” value was 47% in series [5] (18 of 38 kits, control 67%) and 41% in series [6] (7 of 17 kits). Besides, the “knock-in efficiency, total knock-in founders/total embryos transferred” value in series [5] (Cas9, control 0.8%) turned out to be 6.8%; in series [6] (control 0.4%), 2.1%. Also, the “knock-in efficiency, total knock-in founders/total kits born” value in series [5] (Cas9, control 7.0%) was 26.3%; in series [6] (control 6.3%), 17.6%. In addition, the “percentage of WT alleles” value in series [7] (embryos (n=72) parented by founders of RS-1 treated group, other group 18%) was 17%. For the same compound, the “embryos carrying the knock-in allele (knock-in frequency at allele level)” value in series [7] (embryos (n=72) parented by founders of RS-1 treatment group bred with WT, non-treated 14%) is given as 33%. In addition, the “germline transmitting founder animals” value in series [7] (three animals of RS-1 treatment group, non-treatment 50%) stood at 100%. Moreover, the “abnormalities in founder animals” value in series [8] (RLL-EGFP and hApoAII founders derived from RS-1 treatment) is given as “No abnormalities”. Moreover, in series [8] (RS-1 treatment of embryos), the “toxic effects on overall animal health and reproduction” value was “does not appear to have any toxic effects”.
Consider `O=c1[nH]c(=S)[nH]c(N=Cc2ccccc2)c1N=Cc1ccccc1` [SCR7], for which the “effect on overall knock-in efficiency” value in series [1] (SCR7 20, 40, 80 μM for 20 h vs control) is reported as “minimal effects; also recorded: no significant effects”. The overall knock-in efficiency in series [1] (SCR7 treatment groups 20-80 μM, 20 h, control 7.1%) is reported as 7.7-9.4%. In series [2] (SCR7 20, 40, 80 μM, judged by blastocyst rates), the “effect on embryo development” value is given as “no effects on embryo development”. Also, in series [2] (SCR7 treatment conditions (up to 80 μM)), the blastocyst rate was 62-72%.
